Measurements published in publication PMC11432763, “Machine Learning-Driven Discovery and Evaluation of Antimicrobial Peptides from Crassostrea gigas Mucus Proteome” (Marine Drugs, 2024).
Where a SMILES comes first, the peptide text is derived from it.

System: HEK293T cells
Assay: Cytotoxicity assay (CCK-8)
Format: cell-based
Conditions: 24 h; for Cytotoxicity at 50 μM (in words): CCK-8, n = 5, compared with 0 μM; for Cytotoxicity within the concentration range detected (in words): peptide 1-50 μM, CCK-8, OD450, n = 5
Protocol: HEK293T cells were cultured in DMEM (10% FBS, 1% penicillin–streptomycin solution) in a 37 °C, 5% CO2 cell culture incubator until reaching the logarithmic growth phasein. As previously described, cells were seeded into a 96-well plate at 100 μL per well and pre-incubated for 48 h. After removing the medium, 10 μL of antimicrobial peptide solutions (1, 2, 5, 10, 20, and 50 μM) were added to each well with five replicate wells per concentration. The HEK293T cells cultured with DMEM (0 μM peptide) constituted the untreated group and plates with no cells were as blank group. Plates were then cultured for 24 h. Subsequently, 10 μL of CCK-8 solution was added to each well and incubated for 3 h under the same conditions using the Cell Counting Kit-8 (CCK-8, K1018, APE×BIO, Technology LLC, Houston, TX, USA). Absorbance at 450 nm was measured using a microplate reader. Cell viability was calculated using the following formula: Cell viability (%) = [Treated group OD (450) − Blank group OD (450)]/[Untreated group OD (450) − Blank group OD (450)] × 100%.

Compound | Cytotoxicity at 50 μM (in words) | Cytotoxicity within the concentration range detected (in words) | further results
LLFRRRLL [S1] | significant cell death |  | 
FAKLLLRLPALR [P1, peptide … derived from Crassostrea gigas mucous proteins, selected by machine learning] |  | no cytotoxicity | 
CC[C@H](C)[C@H](NC(=O)[C@H](CCCCN)NC(=O)[C@H](Cc1ccc(O)cc1)NC(=O)[C@H](CCCCN)NC(=O)[C@H](CCCCN)NC(=O)[C@H](Cc1ccccc1)NC(=O)[C@H](CCCNC(=N)N)NC(=O)[C@H](CC(N)=O)NC(=O)[C@H](CCSC)NC(=O)[C@@H](NC(=O)[C@H](CC(C)C)NC(=O)[C@H](Cc1ccc(O)cc1)NC(=O)[C@@H](NC(=O)[C@H](C)NC(=O)[C@H](CCCNC(=N)N)NC(=O)[C@H](CCSC)NC(=O)[C@H](CCCCN)NC(=O)[C@H](CCCCN)NC(=O)[C@H](C)NC(=O)[C@H](CCCNC(=N)N)NC(=O)[C@H](CCCNC(=N)N)NC(=O)[C@@H](N)CCCNC(=N)N)[C@@H](C)CC)[C@@H](C)CC)C(=O)O [P4] (H-RRRAKKMRAIYLIMNRFKKYKI-OH; N-terminus and C-terminus assumed) | significant cell death |  | 
WKQIKFYVYNRILKKRK [P2, peptide … derived from Crassostrea gigas mucous proteins, selected by machine learning] | significant cell death |  | 
KVWQRVKVKML [P3, peptide … derived from Crassostrea gigas mucous proteins, selected by machine learning] |  | no cytotoxicity | 
CC(C)C[C@H](NC(=O)[C@@H](N)CC(C)C)C(=O)N[C@@H](CCCNC(=N)N)C(=O)N[C@@H](CCCNC(=N)N)C(=O)N[C@@H](CCCCN)C(=O)N[C@@H](Cc1ccccc1)C(=O)N[C@@H](Cc1ccccc1)C(=O)N[C@@H](Cc1ccccc1)C(=O)O [S2] (H-LLRRKFFF-OH; N-terminus and C-terminus assumed) |  |  | Cytotoxicity at 10 μM (in words) (10 μM, CCK-8, n = 5): significant cytotoxic effects; Cell viability (at 10, 20 and 50 μM, CCK-8, n = 5): ≤ 75%
